{"source": "patent US7632414B2", "about": "“Process for suppressing the growth of green algae in aqueous systems” (priority 2003, dated 2009)", "test_system": "green algae", "details": "after the pH of the water becomes 6.0 or more acidic on acid addition", "from_the_text": "Experiments have also been carried out to add acid to suppress plankton.", "data": [{"molecule": "Cl", "note": "[hydrochloric acid]", "values": [{"measurement": "growth of green algae in Dian Ci Lake water", "value": "totally inhibited"}]}]}
